pKd: −log10 of the molar value.
Key:
Assay type in all cases: cell-based
RAR alpha = biological target: T1, RAR alpha (Homo sapiens, UniProt P10276); assay: Transactivation test, HeLa cells stably transfected with RAR alpha ER-DBD and ERE-luciferase reporter
T1 sequence (P10276 183-417 limits assumed): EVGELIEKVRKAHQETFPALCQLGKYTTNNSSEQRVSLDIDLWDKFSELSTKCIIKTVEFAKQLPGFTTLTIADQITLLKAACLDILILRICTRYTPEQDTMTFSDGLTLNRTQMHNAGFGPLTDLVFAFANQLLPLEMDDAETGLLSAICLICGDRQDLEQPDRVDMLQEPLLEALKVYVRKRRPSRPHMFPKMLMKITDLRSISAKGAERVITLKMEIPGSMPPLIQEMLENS
Procedure: (§1) The activation of receptors with an agonist (activator) in HeLa cells leads to the expression of a reporter gene, luciferase, which, in the presence of a substrate, generates light. The activation of the receptors may thus be measured by quantifying the luminescence produced after incubating the cells in the presence of a reference antagonist. The activating products displace the antagonist from its site, thus permitting activation of the receptor. The activity is measured by quantifying the increase in light produced. This measurement makes it possible to determine the activating activity of the compounds according to the invention.
In this study, a constant is determined which is the affinity of the molecule for the receptor. […]
(§2) These crossed curves make it possible to determine the AC50 values (concentration at which 50% activation is observed) for the reference ligand at various concentrations of test product. These AC50 values are used to calculate the Schild regression by plotting a straight line corresponding to the Schild equation (“Quantitation in Receptor Pharmacology” Terry P. Kenakin, Receptors and Channels, 2001, 7, 371-385).
In the case of an agonist, an AC50 value (concentration that gives 50% of the activity) is calculated by plotting the curve of the product at the concentration of the reference ligand that gives 80% activation. […]

RAR gamma = biological target: T2, RAR gamma (Homo sapiens, UniProt P13631); assay: Transactivation test, HeLa cells stably transfected with RAR gamma ER-DBD and ERE-luciferase reporter; conditions: for AC50: at the reference ligand concentration that gives 80% activation; for pKd: crossed curves against reference antagonist, Schild regression, read-out: RAR gamma Kd app
T2 sequence (P13631 185-419 limits assumed): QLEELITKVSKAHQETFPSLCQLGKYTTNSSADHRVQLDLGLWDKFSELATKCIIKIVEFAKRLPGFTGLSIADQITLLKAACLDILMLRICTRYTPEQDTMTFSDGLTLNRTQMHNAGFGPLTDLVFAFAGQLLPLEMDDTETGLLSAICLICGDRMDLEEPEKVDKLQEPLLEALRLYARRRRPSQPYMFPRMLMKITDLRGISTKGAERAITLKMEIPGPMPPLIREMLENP
Procedure: as §1
(§3) In this study, a constant is determined which is the affinity of the molecule for the receptor. Since this value can fluctuate depending on the basal activity and the expression of the receptor, it is referred to as the Kd apparent (KdApp).
(§4) To determine this constant, “crossed curves” of the test product against a reference antagonist, 4-(5,5-dimethyl-8-p-tolyl-5,6-dihydro-2-naphthalen-2-ylethynyl)benzoic acid, are performed in 96-well plates. The test product is used at 10 concentrations and the reference antagonist at 7 concentrations. In each well, the cells are in contact with a concentration of the test product and a concentration of the reference antagonist, 4-(5,5-dimethyl-8-p-tolyl-5,6-dihydro-2-naphthalen-2-ylethynyl)benzoic acid. Measurements are also taken for the total agonist (4-[2-(5,5,8,8-tetramethyl-5,6,7,8-tetrahydro-2-naphthyl)propenyl]benzoic acid) and inverse agonist, 4-{(E)-3-[4-(4-tert-butylphenyl)-5,5,8,8-tetramethyl-5,6,7,8-tetrahydro-2-naphthyl]-3-oxopropenyl}benzoic acid, controls.
as §2
(§5) In the case of an agonist, an AC50 value (concentration that gives 50% of the activity) is calculated by plotting the curve of the product at the concentration of the reference ligand that gives 80% activation.
(§6) The HeLa cell lines used are stable transfectants containing the plasmids ERE-μGlob-Luc-SV-Neo (reporter gene) and RAR (α, β, γ) ER-DBD-puro. These cells are inoculated into 96-well plates at a rate of 10 000 cells per well in 100 μl of DMEM medium without phenol red, and supplemented with 10% defatted calf serum. […]
(§7) The culture medium is removed by turning over and 100 μl of a 1:1 PBS/luciferin mixture is added to each well. After 5 minutes, the plates are read using the luminescence reader.

RAR beta = biological target: T3, RAR beta (Homo sapiens, UniProt P10826); assay: Transactivation test, HeLa cells stably transfected with RAR beta ER-DBD and ERE-luciferase reporter; conditions: for AC50: at the reference ligand concentration that gives 80% activation; for pKd: crossed curves against reference antagonist, Schild regression, read-out: RAR beta Kd app
T3 sequence (P10826 183-417 limits assumed): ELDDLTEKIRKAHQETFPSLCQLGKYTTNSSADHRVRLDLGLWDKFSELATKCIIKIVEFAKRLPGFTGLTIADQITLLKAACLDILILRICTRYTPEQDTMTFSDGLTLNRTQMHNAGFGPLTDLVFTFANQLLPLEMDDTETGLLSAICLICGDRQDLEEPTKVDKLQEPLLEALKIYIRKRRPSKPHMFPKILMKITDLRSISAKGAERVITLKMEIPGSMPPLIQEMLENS
Procedure: as §1, §3, §4, §2, §5, §6, §7

| SMILES | AC50 (RAR alpha; at the reference ligand concentration that gives 80% activation) | pKd (RAR alpha; crossed curves against reference antagonist, Schild regression, read-out: RAR alpha Kd app) | AC50 (RAR gamma) | pKd (RAR gamma) | AC50 (RAR beta) | pKd (RAR beta) |
| --- | --- | --- | --- | --- | --- | --- |
| CCN(CC)c1ccc(C(COc2ccc(C(=O)O)c(O)c2)=NO)cc1C(C)(C)C [Ex 2, 4-[2-(3-tert-Butyl-4-diethylaminophenyl)-2-hydroxyiminoethoxy]-2-hydroxybenzoic acid] | 5000 nM | 5.30 | 4 nM | 8.40 | 1000 nM | 6.30 |
| CCN(CC)c1ccc(C(COc2ccc(C(=O)O)cc2)=NO)cc1C(C)(C)C [Ex 1, 4-[2-(3-tert-Butyl-4-diethylaminophenyl)-2-hydroxyiminoethoxy]benzoic acid] | – | – | 80 nM | 7.22 | 2500 nM | 6.30 |
